Laboratory results from patent publication US20100099652A1, “NOVEL COMPOSITION BASED ON CHOLEST-4-EN-3-ONE OXIME” (TROPHOS, priority 2007, published 2010).
Converted amounts (≈) assume the structure as drawn.

Tests used:
[1] = Stability of cholest-4-en-3-one oxime in different oils (impurities by HPLC UV at 255 nm); type: physicochemical; details: 15 mg/ml, 60° C., 15 days
Description: The stability of cholest-4-en-3-one oxime was tested in 12 different oils. The compound is added to the oil at a concentration of 15 mg/ml in the form of micronized powder, and the mixture is placed in an oven at 60° C. for 15 days. […] The major impurity obtained is cholestenone. Other impurities can also appear, certain of which are known (and known to be stable), whereas other impurities appearing are unknown, and the potential toxicity or stability of which is therefore not known.
The product is considered to be very stable (++, very stable) in a given oil if after the incubation for 15 days in the oven at 60° C., the percentage of the measured total area under the curve of the chromatogram obtained corresponding to peaks of degradation products of cholest-4-en-3-one oxime represents less than 1%, and these are known, stable products. The product is considered stable (+, stable) in an oil if after the 15 days spent in the oven at 60° C., the percentage of the measured total area under the curve of the chromatogram obtained corresponding to peaks of degradation products of cholest-4-en-3-one oxime represents less than 1%, but corresponds to unknown degradation products. The product is considered unstable (−, instable) in an oil if after the 15 days spent in the oven at 60° C., the percentage of the measured total area under the curve of the chromatogram obtained corresponding to peaks of degradation products of cholest-4-en-3-one oxime represents more than 1%.

[2] = Maximum solubility of cholest-4-en-3-one oxime in water and in different oils; type: physicochemical

CC(C)CCC[C@@H](C)[C@H]1CC[C@H]2[C@@H]3CCC4=CC(=NO)CC[C@]4(C)[C@H]3CC[C@]12C [cholest-4-en-3-one oxime]
stability ([1]; Almond oil): − (major instability of the product in the oil tested, with release of more than 1% degradation products, over 2 weeks at 60° C.)
stability ([1]; Caster oil): + (compound which is stable in the oil tested, with release of less than 1% unknown degradation products, over 2 weeks at 60° C.)
stability ([1]; Corn oil): − (major instability of the product in the oil tested, with release of more than 1% degradation products, over 2 weeks at 60° C.)
stability ([1]; Cotton oil): ++ (compound which is very stable in the oil tested, with release of less than 1% stable known degradation products, over 2 weeks at 60° C.)
stability ([1]; Ground nut oil): + (compound which is stable in the oil tested, with release of less than 1% unknown degradation products, over 2 weeks at 60° C.)
stability ([1]; Mixture of medium-chain triglycerides (ESTASAN ®, MYGLIOL ®)): ++ (compound which is very stable in the oil tested, with release of less than 1% stable known degradation products, over 2 weeks at 60° C.)
stability ([1]; Oleic acid): − (major instability of the product in the oil tested, with release of more than 1% degradation products, over 2 weeks at 60° C.)
stability ([1]; Olive oil): ++ (compound which is very stable in the oil tested, with release of less than 1% stable known degradation products, over 2 weeks at 60° C.)
stability ([1]; Rapeseed oil): + (compound which is stable in the oil tested, with release of less than 1% unknown degradation products, over 2 weeks at 60° C.)
stability ([1]; Sesame oil): ++ (compound which is very stable in the oil tested, with release of less than 1% stable known degradation products, over 2 weeks at 60° C.)
stability ([1]; Soya oil): ++ (compound which is very stable in the oil tested, with release of less than 1% stable known degradation products, over 2 weeks at 60° C.)
stability ([1]; Sunflower oil): − (major instability of the product in the oil tested, with release of more than 1% degradation products, over 2 weeks at 60° C.)
solubility ([2]; castor oil, oil or lipid): < 15 mg/mL
solubility ([2]; cotton oil, oil or lipid): 28 mg/mL (≈ 70.1 mM)
solubility ([2]; ground nut oil, oil or lipid): < 15 mg/mL
solubility ([2]; oil or lipid, Mixture of medium-chain triglycerides (ESTASAN ®, MYGLIOL ®)): 45 mg/mL (≈ 113 mM)
solubility ([2]; olive oil, oil or lipid): 40 mg/mL (≈ 100 mM)
solubility ([2]; rapeseed oil, oil or lipid): < 15 mg/mL
solubility ([2]; sesame oil, oil or lipid): 35 mg/mL (≈ 87.6 mM)
solubility ([2]; soya oil, oil or lipid): 30 mg/mL (≈ 75.1 mM)
solubility ([2]; water): 0.001 mg/mL (≈ 0.0025 mM)
